This note sets out measurements from PubChem BioAssay AID602211 (Sanford-Burnham Center for Chemical Genomics, 2012).

This test concerns H9c2 cardiomyocytes, H2O2 protection, ATPLite viability, 2 h. Put plainly: H2O2-induced H9c2 cell death suppression – ATPLite luminescence, set 2, dose response (AID 602211).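 Also: potency is for protection so actives keep ATP signal up against peroxide killing.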 For orientation: In ATP-based viability assays light output follows the ATP content of the culture.

Structures are written as SMILES. Active and inactive are the calls of the source.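 The calls were made as follows: active = mean IC50 at or below 10 µM; inactive = the rest.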

In the case of `O=C(C(=O)N(Cc1ccccc1)Cc1ccccc1)c1c(-c2ccccc2)[nH]c2ccccc12`, the half-inhibitory concentration (IC50) was 0.33 µM.

For the compound `CC(=O)c1ccc(-c2cnc3c(NC=O)cc(-c4ccc(C(=O)NC5CC5)cc4)cn23)cc1`, the half-inhibitory concentration (IC50) was 3.38 µM.

On to `CCCNC(=O)c1ccc(N2CCC3(CC2)CC(c2ccccc2)=NO3)c(NC(=O)c2ccco2)c1`, for which the IC50 was 4.21 µM.

`Cc1nc2ccccc2c2c(N)c3ccccc3n12`: the IC50 was 14.6 µM (inactive).

For the compound `COc1ccc(-c2nc(NC(=O)c3ccc(OCC(=O)N4CCOCC4)c(OC)c3)sc2C)cc1`, the IC50 was > 79 µM (inactive).

For the compound `O=C(NCC(=O)N(Cc1cccs1)C(C(=O)NC1CCCCC1)c1ccco1)c1ccco1` (stereo not drawn), the IC50 was 10.6 µM (inactive).

Regarding `COc1ccc(OCC(O)Cn2c(Nc3cccc(C)c3)nc3c2c(=O)n(C)c(=O)n3C)cc1` (stereo not drawn), the IC50 is 12.9 µM (inactive).

`COCCn1cnc2c(c1=O)c1nc3ccccc3nc1n2/N=C/c1cccc(OC)c1`: the IC50 is 13.6 µM (inactive).

For `CC(=O)NCc1ccc(-c2csc(NC(=O)CCc3nc4ccccc4c(=O)[nH]3)n2)s1`, the IC50 was 4.3 µM.

On to `CC1(C)Oc2ccc3ccc(=O)oc3c2/C(=C/Nc2ccccn2)C1=O`, for which the IC50 is > 79 µM (inactive).

As to `CC(=O)Nc1cccc(-c2cc(NC=O)c3ncc(-c4ccc(C(C)=O)cc4)n3c2)c1`, the half-inhibitory concentration (IC50) is 6.5 µM.

As for `O=C(COC(=O)c1cc(-c2cccnc2)nc2ccccc12)Nc1ccc(F)cc1F`, the IC50 was 17.8 µM (inactive).

Regarding `COc1cc(-c2cc(C(=O)Nc3ccccc3N3CCOCC3)c3ccccc3n2)cc(OC)c1OC`, the IC50 was 5.8 µM.

Turning to `COc1cccc(-c2cnc3c(NC=O)cc(-c4cccc(C(=O)N(C)C)c4)cn23)c1`, the IC50 is 12.6 µM (inactive).

Consider `CC(=O)N1CCN(c2ccccc2NC(=O)c2ccc(-c3cccc([N+](=O)[O-])c3)o2)CC1`, for which the IC50 is 23.7 µM (inactive).

As to `COc1ccc(OC)c(N(CC(=O)Nc2cccnc2)S(=O)(=O)c2ccc(OC)c(OC)c2)c1`, the IC50 is 16.5 µM (inactive).

For the compound `COc1cc(CCNc2ccc3nnc(-c4ccccc4)n3n2)cc(OC)c1OC`, the 50% inhibitory concentration (IC50) is 9.52 µM.

For `O=C(N/N=C/c1cn(-c2ccccc2)nc1-c1cccnc1)c1ccccc1`, the IC50 was 12.7 µM (inactive).

Regarding `c1cc2[nH]snc2c2nc(C3CC3)nc12`, the half-inhibitory concentration (IC50) is 7.56 µM.

As to `COc1ccc(-c2cc(NC(C)=O)c3ncc(-c4ccc(OC)c(OC)c4)n3c2)cc1OC`, the IC50 is > 79 µM (inactive).

In the case of `COC(=O)c1cccc(S(=O)(=O)N(Cc2ccco2)Cc2cc3cc(OC)ccc3[nH]c2=O)c1`, the IC50 was 42.2 µM (inactive).

For the compound `Brc1cc2c(cc1/C=N/Nc1nc(N3CCCC3)nc(N3CCOCC3)n1)OCO2`, the IC50 was 8.27 µM.

`COC(=O)c1cc(NC(=O)Nc2cc(OC)ccc2OC)cc(C(=O)OC)c1`: the IC50 was 22.3 µM (inactive).

With `Cc1ccc(-c2nn3c(-c4ccco4)nnc3c3ccccc23)cc1S(=O)(=O)NCC1CCCO1` (stereo not drawn), the IC50 is 10.6 µM (inactive).

Regarding `CCN(CC(=O)Nc1ccc(OC)cc1)C(=O)c1cc(-c2cccs2)nn1-c1ccccc1`, the IC50 is 2.06 µM.

As to `C[C@H](CO)N1C[C@H](C)[C@@H](CN(C)C(=O)Nc2ccc3c(c2)OCO3)Oc2c(NC(=O)Nc3ccc(C(F)(F)F)cc3)cccc2C1=O`, the IC50 was 40.3 µM (inactive).

As for `COc1cc2nc(C3CCC3)nc(N3CCN(c4ccccn4)CC3)c2cc1OC`, the IC50 was > 79 µM (inactive).

As to `COc1ccc(-c2cc3nc(C)cc(N4CCN(C(=O)c5ccoc5)CC4)n3n2)cc1`, the IC50 is 69.1 µM (inactive).

In the case of `NS(=O)(=O)c1ccc(N=Cc2c(O)n(-c3nccs3)c(=O)c3ccccc23)cc1`, the IC50 was 4.2 µM.

In the case of `COc1ccc(-c2cc3nc(-c4ccccc4)cc(N4CCN(C(C)=O)CC4)n3n2)cc1`, the IC50 is 8.73 µM.

For the compound `COC(=O)c1ccc(C(=O)OC)c(NC(=O)COC(=O)C23CC4CC(CC(O)(C4)C2)C3)c1`, the half-maximal inhibitory concentration (IC50) is 3.4 µM.

As for `CCN(CC)C(=O)c1ccc(-c2nnc(Nc3ccc(O)cc3)c3ccccc23)cc1`, the IC50 is 17.6 µM (inactive).

For `COC(=O)c1cc2c(C)c(C)c3ccccn3c-2c1C(=O)OC`, the IC50 is > 79 µM (inactive).

Regarding `COc1cccc(/C=N/NC(=O)c2oc3nc(-c4ccccc4)cc(-c4ccco4)c3c2N)c1`, the IC50 is 5.87 µM.

For `COCCCN(Cc1ccco1)C(=O)Cn1ncc2c([nH]c3ccccc32)c1=O`, the IC50 was 10.9 µM (inactive).

Consider `COc1ccc(-c2nn(-c3ccccc3)cc2C(=O)Nc2nccs2)cc1`, for which the half-maximal inhibitory concentration (IC50) was 8.75 µM.

As for `COc1ccc(-c2cc(C(=O)N(C)Cc3ccc(OC)c(OC)c3OC)c3ccccc3n2)cc1OC`, the half-maximal inhibitory concentration (IC50) was 4.04 µM.

In the case of `COc1cc(-c2cc(C(=O)N3CCN(c4ccccn4)CC3)c3ccccc3n2)cc(OC)c1OC`, the half-inhibitory concentration (IC50) is 3.56 µM.

As to `C[C@H](CO)N1C[C@H](C)[C@@H](CN(C)S(=O)(=O)c2ccccc2)Oc2ccc(NC(=O)Nc3ccccc3)cc2C1=O`, the IC50 was 16.6 µM (inactive).

For `COc1cc(NC(=O)c2ccco2)c(OC)cc1NC(=O)c1cc(OC)c(OC)c(OC)c1`, the IC50 was 11.3 µM (inactive).

For the compound `COc1ccc2[nH]c(=O)c(CN(CC3CCCO3)S(=O)(=O)c3ccccc3F)cc2c1` (stereo not drawn), the concentration for half-maximal inhibition (IC50) was 4.52 µM.

`COc1ccc(OC)c(NC(=O)COC(=O)c2c3c(nc4ccccc24)CCCC3)c1`: the 50% inhibitory concentration (IC50) is 1.15 µM.

As for `O=C(NCc1ccco1)C(c1ccccc1)N(C(=O)Cc1cccs1)c1ccccc1F` (stereo not drawn), the IC50 was 3.52 µM.

Turning to `CSc1nc2ncc3c(n2n1)CC1c2ccccc2CCN1C3=O` (stereo not drawn), the IC50 is 23 µM (inactive).

For the compound `CCOc1ccccc1N1CC(O)=C(c2nc3ccccc3s2)C1=N`, the IC50 was > 79 µM (inactive).

For the compound `COc1cccc(-c2nn(-c3ccccc3)cc2C(=O)Nc2nccs2)c1`, the IC50 was 12.8 µM (inactive).

Take `O=C(Nc1nc(-c2cc(F)ccc2F)cs1)C1=NN(c2ccccc2)C(=O)CC1`: the IC50 was 6.26 µM.

Consider `CC(C)N1C(=O)S/C(=C/c2ccc3c(c2)n(C)c(=O)n3C)C1=O`, for which the IC50 was 1.71 µM.

In the case of `CC(=O)c1ccc(-c2cnc3c(NC=O)cc(-c4cccc(NS(C)(=O)=O)c4)cn23)cc1`, the IC50 was 8.18 µM.

As for `COc1ccc(-c2csc(NC(=O)c3ccc(OCC(=O)N4CCOCC4)c(OC)c3)n2)cc1OC`, the IC50 was 2.44 µM.

On to `CNC(=O)c1ccc(-c2sc3nc(N4CCOCC4)c4c(c3c2N)CCCC4)o1`, for which the IC50 was 11.6 µM (inactive).

Turning to `CC(C)(C)OC(=O)C[C@@H]1C/C=C\C[C@@H](CC(=O)N[C@H](CO)Cc2ccccc2)C(=O)NC[C@@H](c2ccccc2)OC1=O`, the IC50 is 17.6 µM (inactive).

On to `N#C/C(=C\Nc1ccc2c(c1)OCCO2)c1nc2ccccc2[nH]1`, for which the IC50 is 9.06 µM.

For `O=C(Nc1ccccc1)c1nc[nH]c1C(=O)NCCCCNC(=O)c1[nH]cnc1C(=O)Nc1ccccc1`, the IC50 was 2.04 µM.

`CCc1nc(N2CCN(C(=O)c3ccco3)CC2)c2oc3ccccc3c2n1`: the IC50 is > 79 µM (inactive).

For the compound `COc1ccc(Cl)cc1NC(=O)CCS(=O)(=O)c1cc2c(cc1C)NC(=O)CO2`, the IC50 was 8.29 µM.

Regarding `COc1cc(/C=C/C(=O)Nc2ccc3nc4n(c(=O)c3c2)CCCC4)cc(OC)c1OC`, the IC50 was 13.3 µM (inactive).

As to `O=C(CNC(=O)c1nc[nH]c1C(=O)NCc1ccccc1)OCc1ccccc1`, the IC50 was > 79 µM (inactive).

Broadly, the IC50 is the concentration needed to halve the response being measured.
